According to PMC7021728, “Structure of the agonist 12–HHT in its BLT2 receptor-bound state” (Scientific Reports, 2020):
Where a chain is given by its changes, count along the chain named. Like-named read-outs stand apart in the source and are kept apart here.

Columns and labels:
Assay in all cases: Gi protein activation catalyzed by BLT2 mutant
Format in all cases: biochemical
[1] = target: T1, BLT2 R270^7.35A (Homo sapiens, UniProt Q9NPC1, R270A); conditions: construct R270^7.35A
T1 construct: made in house
T1 sequence (Q9NPC1 1-358 R270A): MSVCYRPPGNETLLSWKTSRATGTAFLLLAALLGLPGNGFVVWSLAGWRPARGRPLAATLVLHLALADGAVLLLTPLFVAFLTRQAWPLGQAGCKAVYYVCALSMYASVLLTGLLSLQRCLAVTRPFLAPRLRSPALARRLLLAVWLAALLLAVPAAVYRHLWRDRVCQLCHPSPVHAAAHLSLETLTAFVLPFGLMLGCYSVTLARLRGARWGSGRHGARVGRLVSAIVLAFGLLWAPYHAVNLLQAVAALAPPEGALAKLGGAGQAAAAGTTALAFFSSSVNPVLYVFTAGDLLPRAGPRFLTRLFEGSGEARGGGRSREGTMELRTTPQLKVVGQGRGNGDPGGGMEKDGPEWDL
Description: (§1) All mutations were introduced in the wild-type BLT2 receptor by PCR-mediated mutagenesis using the QuickChange multisite-directed mutagenesis kit (Stratagene) and the wild-type BLT2 construct as a template. Mutations were confirmed by nucleotide sequencing.
(§2) Gαi2 and Gβ1γ2 were prepared as previously described. Briefly, agonist-dependent functional coupling of the purified receptor to Gαi2β1γ2 was assessed through the rate of GTPγS binding at increasing agonist concentrations determined by monitoring the relative increase in the intrinsic fluorescence ( λexcitation=300nm , λemission=345nm ) of Gαi2 (200 nM of purified G protein) in the presence of BLT2 (20 nM) in buffer containing 10 mM MOPS, pH 7.2, 130 mM NaCl, and 2 mM MgCl2 at 15 °C after the addition of 10 μM GTPγS. The data were normalized to the fluorescence maximum obtained in the presence of saturating concentrations in 12–HHT (10 μM).

[2] = target: T2, BLT2 S174^ECL2A (Homo sapiens, UniProt Q9NPC1, S174A)
T2 construct: made in house
T2 sequence (Q9NPC1 1-358 S174A): T1 sequence (Q9NPC1 1-358 R270A) with S174A, A270R
Description: as §1, §2

[3] = target: T3, BLT2 E185^5.42A (Homo sapiens, UniProt Q9NPC1, E185A)
T3 construct: made in house
T3 sequence (Q9NPC1 1-358 E185A): T1 sequence (Q9NPC1 1-358 R270A) with E185A, A270R
Description: (§3) All mutations were introduced in the wild-type BLT2 receptor by PCR-mediated mutagenesis using the QuickChange multisite-directed mutagenesis kit (Stratagene) and the wild-type BLT2 construct as a template. Mutations were confirmed by nucleotide sequencing. […] Gαi2 and Gβ1γ2 were prepared as previously described. […] The data were normalized to the fluorescence maximum obtained in the presence of saturating concentrations in 12–HHT (10 μM).

[4] = target: T4, BLT2 Q267^7.32A (Homo sapiens, UniProt Q9NPC1, Q267A)
T4 construct: made in house
T4 sequence (Q9NPC1 1-358 Q267A): T1 sequence (Q9NPC1 1-358 R270A) with Q267A, A270R
Description: as §3

[5] = target: T5, BLT2 R166^ECL2A (Homo sapiens, UniProt Q9NPC1, R166A)
T5 construct: made in house
T5 sequence (Q9NPC1 1-358 R166A): T1 sequence (Q9NPC1 1-358 R270A) with R166A, A270R
Description: as §3

- EC50 [1]: 235 nM
- EC50 ([2]; S174^ECL2A, read-out: EC50): 295 nM
- EC50 ([2]; construct S174^ECL2A, given as LogEC50 (negative sign), read-out: LogEC50 (converted)): 289 nM
- EC50 ([2]; construct S174^ECL2A, read-out: EC50): 295 nM
- effect of the mutation on ligand binding ([3]; E185A compared to wild-type, in words): did not significantly affect
- EC50 ([3]; construct E185^5.42A): 70.7 nM
- effect of the mutation on ligand binding ([4]; Q267^7.32A compared to wild-type, in words): no significant change in ligand binding
- EC50 ([4]; construct Q267^7.32A): 33.1 nM
- effect of the mutation on ligand binding ([5]; R166^ECL2 mutation compared to wild-type, in words): do not impact receptor ligand properties
- EC50 ([5]; construct R166^ECL2A): 20.7 nM
SMILES: CCCCC[C@H](O)/C=C/C=C/C/C=C\CCCC(=O)O [12–HHT, 12S–hydroxyheptadeca-5Z,8E,10E-trienoic acid]
